From PubChem BioAssay (NCI)
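48-hour exposure; five concentrations; linearly interpolated endpoints. GI50 = concentration required for 50% inhibition of growth. TGI is the concentration that stops growth completely.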

Legend:
Assay in all cases: inhibition of tumour cell growth, NCI panel, 48 h
NCI/ADR-RES ovarian = tested on: NCI/ADR-RES ovarian
IGROV1 ovarian = tested on: IGROV1 ovarian
U251 CNS = tested on: U251 CNS
A498 renal = tested on: A498 renal
SK-MEL-2 melanoma = tested on: SK-MEL-2 melanoma
HS 578T breast = tested on: HS 578T breast
MOLT-4 leukemia = tested on: MOLT-4 leukemia
M14 melanoma = tested on: M14 melanoma
NCI-H23 lung = tested on: NCI-H23 lung
NCI-H522 lung = tested on: NCI-H522 lung

| Compound | GI50 (NCI/ADR-RES ovarian) [µM] | TGI (NCI/ADR-RES ovarian) [µM] | GI50 (IGROV1 ovarian) [µM] | TGI (IGROV1 ovarian) [µM] | GI50 (U251 CNS) [µM] | TGI (U251 CNS) [µM] | GI50 (A498 renal) [µM] | TGI (A498 renal) [µM] | GI50 (SK-MEL-2 melanoma) [µM] | TGI (SK-MEL-2 melanoma) [µM] | GI50 (HS 578T breast) [µM] | TGI (HS 578T breast) [µM] | GI50 (MOLT-4 leukemia) [µM] | TGI (MOLT-4 leukemia) [µM] | GI50 (M14 melanoma) [µM] | TGI (M14 melanoma) [µM] | GI50 (NCI-H23 lung) [µM] | TGI (NCI-H23 lung) [µM] | GI50 (NCI-H522 lung) [µM] | TGI (NCI-H522 lung) [µM] |
| --- | --- | --- | --- | --- | --- | --- | --- | --- | --- | --- | --- | --- | --- | --- | --- | --- | --- | --- | --- | --- |
| CN1C2C=CC(=O)C1C1C(=O)N(c3ccccc3)C(=O)C12 (centres undefined) | 17 | 95.3 | 12.1 | 27.9 | 7.16 | 20.8 | 15.6 | 29.5 | 8.12 | 42 | 4.55 | 22.3 | 5.99 | > 100 | 9.8 | 24.6 | 13.2 | 37.1 | 14.3 | 79.9 |
| CCn1c(-c2nonc2N)nc2ccccc21 | > 25 | > 25 | > 25 | > 25 | > 25 | > 25 | > 25 | > 25 | > 25 | > 25 | > 22.3 | > 25 | > 25 | > 25 | > 25 | > 25 | > 25 | > 25 | > 25 | > 25 |
| Nc1ccc(CC[C@H]2CCC/C=C/[C@@H]3C[C@H](O)C[C@H]3[C@H](O)/C=C/C(=O)O2)cc1 | 0.0376 | – | 0.0367 | 0.175 | 0.048 | > 100 | 0.0169 | 0.0491 | 0.0381 | 0.18 | < 0.0163 | > 58.9 | 0.029 | 0.0847 | 0.0337 | 10.7 | 0.0379 | 1.06 | 0.0816 | 0.375 |
| CC1(C)N=C(N)N=C(N)N1c1ccc(CCCC(=O)Nc2ccc(S(=O)(=O)F)cc2)cc1 | > 100 | > 100 | 0.57 | > 100 | 9.22 | > 100 | 37.5 | > 100 | 46.2 | > 100 | > 100 | > 100 | 14.2 | > 100 | 5.44 | > 100 | 8.59 | > 100 | 8.4 | > 100 |
| CC[C@H](C)[C@H](NC(=O)C12C3C4C1C1C2C3C41NC)C(=O)N(C)[C@H](C[C@@H](OC(C)=O)c1nc(C(=O)N[C@@H](Cc2ccccc2)C[C@H](C)C(=O)OC)cs1)C(C)C (some centres undefined) | 8.15 | > 14.3 | 0.88 | > 14.3 | 0.594 | > 14.3 | 0.296 | 4.53 | 0.223 | > 14.3 | 0.693 | > 11.9 | 0.713 | > 14.3 | 0.42 | 5.54 | 0.705 | > 14.3 | 0.0561 | 0.967 |
